Reference: patent publication US20150105252A1, “SUBSTITUTED PYRAZOLES AS HERBICIDES” (E I DU PONT DE NEMOURS AND COMPANY, priority 2013, published 2015)

Legend:
ragweed = assay: Test E preemergence; assay type: in vivo, Ambrosia elation; conditions: 21 days, scale 0 to 100
Text: (§1) Seeds of plant species selected from bermudagrass (Cynodon dactylon), Surinam grass (Brachiaria decumbens), crabgrass, large (large crabgrass, Digitaria sanguinalis), crabgrass, naked (naked crabgrass, Digitaria nuda), foxtail, green (green foxtail, Setaria viridis), johnsongrass (Sorghum halepense), kochia (Kochia scoparia), morningglory (pitted morningglory, Ipomoea lacunosa), nutsedge, purple (purple nutsedge, Cyperus rotundus), ragweed (common ragweed, Ambrosia elation), mustard, black (black mustard, Brassica nigra), guineagrass (Panicum maximum), dallisgrass (Paspalum dilatatum), barnyardgrass (Echinochloa crus-galli), sandbur (southern sandbur, Cenchrus echinatus), sowthistle (common sowthistle, Sonchus oleraceous), ryegrass, Italian (Italian ryegrass, Lolium multiflorum), signalgrass (broadleaf signalgrass, Brachiaria platyphylla), dayflower, VA (Virginia (VA) dayflower, Commelina virginica), bluegrass (annual bluegrass, Poa annua), quackgrass (Elytrigia repens), mallow (common mallow, Malva sylvestris), buckwheat, wild (wild buckwheat, Polygonum convolvulus), leafy spurge (Euphorbia esula), common chickweed (Stellaria media), wild poinsettia (Euphorbia heterophylla), pigweed, palmer (palmer pigweed, Amaranthus palmeri), and pigweed (redroot pigweed, Amaranthus retroflexus) were planted into a blend of loam soil and sand and treated preemergence with test chemicals formulated in a non-phytotoxic solvent mixture which included a surfactant.
(§2) Treated plants and controls were maintained in a greenhouse for 21 days, after which time all species were compared to controls and visually evaluated. Plant response ratings, summarized in Table E, are based on a scale of 0 to 100 where 0 is no effect and 100 is complete control. A dash (-) response means no test result.

wild poinsettia = assay: Test E preemergence; assay type: in vivo, Euphorbia heterophylla; conditions: 21 days, scale 0 to 100
Text: as §1, §2

corn = assay: Test F postemergence; assay type: in vivo, Zea mays; conditions: scale 0 to 100
Procedure, shortened: (§3)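 Greenhouse study; evaluation window 14–21 days post-treatment. Seedlings sprayed postemergence measured 2–18 cm, while preemergence treatments went on silt loam soil. Non-phytotoxic solvent mixture with surfactant served as vehicle; response assessed by eye, 0–100 scale.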

dayflower, VA = assay: Test F postemergence; assay type: in vivo, Commelina virginica; conditions: scale 0 to 100
Text: Seeds of plant species selected from corn (Zea mays), soybean (Glycine max), velvetleaf (Abutilon theophrasti), lambsquarters (Chenopodium album), wild poinsettia (Euphorbia heterophylla), pigweed, palmer (palmer pigweed, Amaranthus palmeri), common waterhemp (Amaranthus rudis), surinam grass (Brachiaria decumbens), large crabgrass (Digitaria sanguinalis), crabgrass, Brazil (Brazilian crabgrass, Digitaria horizontalis), fall panicum (Panicum dichotomiflorum), giant foxtail (Setaria faberii), green foxtail (Setaria viridis), goosegrass (Eleusine indica), johnsongrass (Sorghum halepense), common ragweed (Ambrosia elation), barnyardgrass (Echinochloa crus-galli), southern sandbur (Cenchrus echinatus), arrowleaf sida (Sida rhombifolia), Italian ryegrass (Lolium multiflorum), dayflower, VA (Virginia (VA) dayflower, Commelina virginica), field bindweed (Convolvulus arvensis), cocklebur (common cocklebur, Xanthium strumarium), morningglory (Ipomoea coccinea), nightshade (eastern black nightshade, Solanum ptycanthum), kochia (Kochia scoparia), yellow nutsedge (Cyperus esculentus), and hairy beggarticks (Bidens pilosa), were planted into a silt loam soil and treated preemergence with test chemicals formulated in a non-phytotoxic solvent mixture which included a surfactant.
At the same time, plants from these crop and weed species and also horseweed (Canada horseweed, Conyza canadensis), smartweed (ladysthumb smartweed, Polygonum persicaria), waterhemp_RES1, (ALS & Triazine resistant common waterhemp, Amaranthus rudis), and waterhemp_RES2, (ALS & HPPD resistant common waterhemp, Amaranthus rudis) were treated with postemergence applications of test chemicals formulated in the same manner. Plants ranged in height from 2 to 18 cm for postemergence treatments (1- to 4-leaf stage). Treated plants and controls were maintained in a greenhouse for 14 to 21 days, after which time all species were compared to controls and visually evaluated. Plant response ratings, summarized in Table F, are based on a scale of 0 to 100 where 0 is no effect and 100 is complete control. A dash (-) response means no test result.

[1] = tested on: waterhemp_RES1 (ALS & Triazine resistant common waterhemp); assay: Test F postemergence; assay type: in vivo, Amaranthus rudis; conditions: scale 0 to 100
Procedure, shortened: as §3

common waterhemp = assay: Test F postemergence; assay type: in vivo, Amaranthus rudis; conditions: scale 0 to 100
Procedure, shortened: as §3

[2] = tested on: waterhemp_RES2 (ALS & HPPD resistant common waterhemp); assay: Test F postemergence; assay type: in vivo, Amaranthus rudis; conditions: scale 0 to 100
Procedure, shortened: as §3

SMILES	Plant response rating, Ragweed (ragweed; 16 g ai/ha)	Plant response rating, Ragweed (ragweed; 31 g ai/ha)	Plant response rating, Ragweed (ragweed; 62 g ai/ha)	Plant response rating, Ragweed (ragweed; 125 g ai/ha)	Plant response rating, Ragweed (ragweed; 250 g ai/ha)	Plant response rating, Wild Poinsettia (wild poinsettia; 16 g ai/ha)	Plant response rating, Wild Poinsettia (wild poinsettia; 31 g ai/ha)	Plant response rating, Wild Poinsettia (wild poinsettia; 62 g ai/ha)	Plant response rating, Wild Poinsettia (wild poinsettia; 125 g ai/ha)	Plant response rating, Wild Poinsettia (wild poinsettia; 250 g ai/ha)	Plant response rating, Corn (corn; Postemergence, 31 g ai/ha)	Plant response rating, Corn (corn; Postemergence, 125 g ai/ha)	Plant response rating, Corn (corn; Postemergence, 250 g ai/ha)	Plant response rating, Corn (corn; postemergence, 62 g ai/ha)	Plant response rating, Dayflower, VA (dayflower, VA; Postemergence, 31 g ai/ha)	Plant response rating, Dayflower, VA (dayflower, VA; Postemergence, 125 g ai/ha)	Plant response rating, Dayflower, VA (dayflower, VA; Postemergence, 250 g ai/ha)	Plant response rating, Dayflower, VA (dayflower, VA; postemergence, 62 g ai/ha)	Plant response rating, Dayflower, VA (dayflower, VA; postemergence, 500 g ai/ha)	Plant response rating, Waterhemp_RES1 ([1]; Postemergence, 31 g ai/ha)	also measured
CCOc1cc(C(=O)NCC(F)(F)F)nn1Cc1ccnc(C(F)(F)F)c1 [Compound 104]	100	100	100	100	100	95	100	100	100	100	10	50	90	25	35	70	90	55	95	70	Plant response rating, Waterhemp_RES1 ([1]; Postemergence, 125 g ai/ha): 90; Plant response rating, Waterhemp_RES1 ([1]; Postemergence, 250 g ai/ha): 75; Plant response rating, Waterhemp_RES1 ([1]; postemergence, 62 g ai/ha): 75; Plant response rating, Waterhemp_RES1 ([1]; postemergence, 500 g ai/ha): 85; Plant response rating, Common Waterhemp (common waterhemp; Postemergence, 31 g ai/ha): 75; Plant response rating, Common Waterhemp (common waterhemp; Postemergence, 125 g ai/ha): 85; Plant response rating, Common Waterhemp (common waterhemp; Postemergence, 250 g ai/ha): 85; Plant response rating, Common Waterhemp (common waterhemp; postemergence, 62 g ai/ha): 80; Plant response rating, Common Waterhemp (common waterhemp; postemergence, 500 g ai/ha): 90; Plant response rating, Waterhemp_RES2 ([2]; Postemergence, 31 g ai/ha): 80; Plant response rating, Waterhemp_RES2 ([2]; Postemergence, 125 g ai/ha): 95; Plant response rating, Waterhemp_RES2 ([2]; Postemergence, 250 g ai/ha): 80; Plant response rating, Waterhemp_RES2 ([2]; postemergence, 62 g ai/ha): 80; Plant response rating, Waterhemp_RES2 ([2]; postemergence, 500 g ai/ha): 85
CCCc1cc(C(=O)NCC(F)(F)F)nn1Cc1ccnc(C(F)(F)F)c1 [Compound 105]	70	100	100	100	100	50	80	100	100	100	10	40	80	30	20	80	85	50	90	70	Plant response rating, Waterhemp_RES1 ([1]; Postemergence, 125 g ai/ha): 75; Plant response rating, Waterhemp_RES1 ([1]; Postemergence, 250 g ai/ha): 90; Plant response rating, Waterhemp_RES1 ([1]; postemergence, 62 g ai/ha): 70; Plant response rating, Waterhemp_RES1 ([1]; postemergence, 500 g ai/ha): 95; Plant response rating, Common Waterhemp (common waterhemp; Postemergence, 31 g ai/ha): 65; Plant response rating, Common Waterhemp (common waterhemp; Postemergence, 125 g ai/ha): 65; Plant response rating, Common Waterhemp (common waterhemp; Postemergence, 250 g ai/ha): 75; Plant response rating, Common Waterhemp (common waterhemp; postemergence, 62 g ai/ha): 60; Plant response rating, Common Waterhemp (common waterhemp; postemergence, 500 g ai/ha): 80; Plant response rating, Waterhemp_RES2 ([2]; Postemergence, 31 g ai/ha): 60; Plant response rating, Waterhemp_RES2 ([2]; Postemergence, 125 g ai/ha): 75; Plant response rating, Waterhemp_RES2 ([2]; Postemergence, 250 g ai/ha): 85; Plant response rating, Waterhemp_RES2 ([2]; postemergence, 62 g ai/ha): 70; Plant response rating, Waterhemp_RES2 ([2]; postemergence, 500 g ai/ha): 95
